# Assay results: patent US20090068243A1, “Novel formulations for delivery of antiviral peptide therapeutics” (priority 2007, published 2009)
# Key:
# [1] = Intravenous pharmacokinetics in cynomolgus monkeys; format: in vivo, cynomolgus monkeys (Macaca fasicularis); conditions: for clearance / half-life: cynomolgus monkey, plasma, iv, dosed intravenously; for half-life: read-out: Half-life (t ½; hr) (converted); for biological half-life relative to base sequence, in words: comment on Table 2
# Experimental: For determining pharmacokinetic properties, an HIV fusion inhibitor peptide or a base sequence from which an HIV fusion inhibitor peptide is derived was dosed intravenously in cynomolgus monkeys (Macaca fasicularis) (other animal models may be used for determining pharmacokinetic properties, as known in the art). At various times post-dose, blood samples were drawn and plasma isolated by centrifugation. Plasma samples were stored frozen until analysis by LC-MS (liquid chromatography/mass spectrometry) in the electrospray, positive-ion mode. An HIV fusion inhibitor or base sequence was eluted from a C18 or C8 HPLC column with a gradient of acetonitrile in a buffer of 10 mM ammonium acetate, pH 6.8. At the time of analysis, plasma samples were deproteinated with either two or three volumes of acetonitrile containing 0.5% formic acid. Duplicate calibration standards in cynomolgus plasma samples were prepared at the same time as the samples and analyzed before and after the samples containing either HIV fusion inhibitor peptide or base sequence. Pharmacokinetic properties were calculated from the plasma concentration-time data using either mono-exponential or bi-exponential mathematical models. Models were derived by non-linear least squares optimization. A 1/C^2 weighting of concentrations was used. The following equations were used to calculate area-under the plasma concentration vs. time curve (AUC), total body clearance (Cl), and terminal elimination half-life (t ½).
# Where A and B are intercepts and a and b are the rate constants of the exponential equations describing the distribution and elimination phases, respectively. When mono-exponential models were used, the “A” and “a” properties were eliminated.
# Cl=Dose/AUC (expressed in L/K/hr)
# t½=0.6903/b (expressed in hr)
# [2] = Stability in aqueous solution (PBS), peptide remaining in solution by HPLC; format: physicochemical; conditions: 10 mg/ml in PBS, about pH 7.3 to 7.5, 37° C.
# [3] = Helicity by circular dichroism (CD); format: physicochemical; conditions: usually percent helicity at 10 μM, 25° C.
# Experimental: (§1) Assessment of biophysical parameters included measurement of helicity and thermal stability. Helicity was assessed by circular dichroism (“CD”) as follows. Briefly, CD spectra were obtained using a spectrometer equipped with a thermoelectric temperature controller. The spectra was obtained at 25° C. with 0.5 nanometer (nm) steps from 200 to 260 nm, with a 1.5 nm bandwith, and a typical averaging time of 4 seconds/step. After the cell/buffer blank was subtracted, spectra were smoothed using a third-order least-squares polynomial fit with a conservative window size to give random residuals. Raw ellipticity values were converted to mean residue ellipticity using standard methods, and plotted was the wavelength (from 200 to 260 nm) versus [θ]×10−3 (degrees cm^2/dmol). Percent helicity values were then calculated using standard methods (usually expressed as percent helicity at 10 μM, 25° C.). Assessment of thermal stability was performed by monitoring the change in CD signal at 222 nm as temperature was raised in 2° C. steps, with 1 minute equilibration times. The stability for each sample (e.g., HIV fusion inhibitor peptide), as represented by the Tm value, is the temperature corresponding to the maximum value of the first derivative of the thermal transition.
# [4] = Thermal stability (Tm) by CD signal at 222 nm; format: physicochemical; conditions: CD at 222 nm, maximum of first derivative of thermal transition
# Experimental: as §1
# HIV-IIIB = conditions: 50% reduction in infectious virus titer
# From the text: Assessment of biological properties included measurement of antiviral activity against HIV-1 strains. […] These assays score for reduction of infectious virus titer employing the indicator cell lines MAGI or the CCR5 expressing derivative cMAGI. Both cell lines exploit the ability of HIV-1 tat to transactivate the expression of a β-galactosidase reporter gene driven by the HIV-LTR. The β-gal reporter has been modified to localize in the nucleus and can be detected with the X-gal substrate as intense nuclear staining within a few days of infection. The number of stained nuclei can thus be interpreted as equal to the number of infectious virions in the challenge inoculum if there is only one round of infection prior to staining. […] In the MAGI and cMAGI assays, a 50% reduction in infectious titer (Vn/Vo=0.5) is significant, and provides the primary cutoff value for assessing antiviral activity (“IC50” is defined as the concentration of active ingredient resulting in a 50% reduction in infectious virus titer). […] The number of infected cells for each control and peptide dilution was determined with the CCD-imager, and then the IC50 was calculated (expressed in μg/ml).
# HIV-Res = format: cell-based, HIV-1; conditions: resistant viral isolate "Res"
# From the text: Assessment of biological properties included measurement of antiviral activity against HIV-1 strains. In determining antiviral activity (e.g., one measure being the ability to inhibit transmission of HIV to a target cell) of the HIV fusion inhibitor peptides, an in vitro assay which has been shown, by data generated using peptides derived from the HR regions of HIV gp41, to be predictive of antiviral activity observed in vivo was used. […] These assays score for reduction of infectious virus titer employing the indicator cell lines MAGI or the CCR5 expressing derivative cMAGI. Both cell lines exploit the ability of HIV-1 tat to transactivate the expression of a β-galactosidase reporter gene driven by the HIV-LTR. The β-gal reporter has been modified to localize in the nucleus and can be detected with the X-gal substrate as intense nuclear staining within a few days of infection. […] The number of infected cells for each control and peptide dilution was determined with the CCD-imager, and then the IC50 was calculated (expressed in μg/ml).
# Viruses resistant to the antiviral activity of a peptide consisting of a base sequence can be produced using standard laboratory methods. […] The cultures are maintained and monitored until syncytia are present. […] The second round of culture is maintained and monitored for presence of virus resistant to the antiviral activity of the peptide. […]
# 584.000030 = system: 584.000030
# From the text: (§2) Assessment of biological properties included measurement of antiviral activity against HIV-1 strains. […] These assays score for reduction of infectious virus titer employing the indicator cell lines MAGI or the CCR5 expressing derivative cMAGI. Both cell lines exploit the ability of HIV-1 tat to transactivate the expression of a β-galactosidase reporter gene driven by the HIV-LTR. The β-gal reporter has been modified to localize in the nucleus and can be detected with the X-gal substrate as intense nuclear staining within a few days of infection. The number of stained nuclei can thus be interpreted as equal to the number of infectious virions in the challenge inoculum if there is only one round of infection prior to staining. […] In the MAGI and cMAGI assays, a 50% reduction in infectious titer (Vn/Vo=0.5) is significant, and provides the primary cutoff value for assessing antiviral activity (“IC50” is defined as the concentration of active ingredient resulting in a 50% reduction in infectious virus titer). […] The peptide (in the respective dilution) was added to the cMAGI or MAGI cells, followed by the virus inocula; and 24 hours later, an inhibitor of infection and cell-cell fusion (e.g., SEQ ID NO:2 (enfuvirtide)) was added to prevent secondary rounds of HIV infection and cell-cell virus spread. The cells were cultured for 2 more days, and then fixed and stained with the X-gal substrate to detect HIV-infected cells. The number of infected cells for each control and peptide dilution was determined with the CCD-imager, and then the IC50 was calculated (expressed in μg/ml).
# (§3) In particular, in vitro resistance comparison studies were performed between the novel SEQ ID NO:9 compound of interest and established antiviral agent SEQ ID NO:2, described in detail as follows: MT2 cells were infected with virus isolates (IIIB, 030, 060 and 098) and cultured in increasing concentrations of SEQ ID NO:2 (enfuvirtide) or SEQ ID NO:9 to select for resistance. The initial peptide concentration was approximately 2 times the IC50 of each peptide against the corresponding wild type isolate. Peptide concentrations were maintained by adding fresh peptide every 1-3 days. Cultures were monitored for cytopathic effect (CPE) using standard techniques and when maximal CPE was achieved, a small aliquot of virus was used for subsequent rounds of infection. Peptide concentrations were increased 2 to 4-fold depending on the length of time in culture when compared to the growth rate of wild type virus. During the course of selection, peptide-free virus stocks were also collected. Peptide-free virus stocks were characterized for gp41 genotypic changes by dideoxy sequencing chemistries and phenotypic susceptibility was determined using a cMAGI infectivity assay.
# 584.000060 = system: 584.000060
# From the text: as §2, §3
# 584.000098 = system: 584.000098
# From the text: as §2, §3
# IIIB = conditions: starting virus isolate IIIB
# From the text: as §2, §3
# [5] = system: virus isolates (IIIB, 030, 060 and 098); conditions: Geometric Mean of four isolates
# From the text: as §2, §3
compound,measurement,setting,value
CC[C@H](C)[C@H](NC(=O)[C@H](C)NC(=O)[C@H](CCCNC(=N)N)NC(=O)[C@H](CC(=O)O)NC(=O)[C@H](Cc1c[nH]c2ccccc12)NC(=O)[C@H](C)NC(=O)[C@H](CCC(=O)O)NC(=O)[C@H](Cc1c[nH]c2ccccc12)NC(=O)[C@@H](NC(=O)[C@@H](NC(C)=O)[C@@H](C)O)[C@@H](C)O)C(=O)N[C@@H](C)C(=O)N[C@@H](CCC(=O)O)C(=O)N[C@@H](Cc1ccc(O)cc1)C(=O)N[C@@H](C)C(=O)N[C@@H](C)C(=O)N[C@@H](CCCNC(=N)N)C(=O)N[C@H](C(=O)N[C@@H](CCC(=O)O)C(=O)N[C@@H](C)C(=O)N[C@@H](CC(C)C)C(=O)N[C@H](C(=O)N[C@@H](CCCNC(=N)N)C(=O)N[C@@H](C)C(=O)N[C@@H](C)C(=O)N[C@@H](CCC(N)=O)C(=O)N[C@@H](CCC(=O)O)C(=O)N[C@@H](CCC(N)=O)C(=O)N[C@@H](CCC(N)=O)C(=O)N[C@@H](CCC(=O)O)C(=O)N[C@@H](CCCCN)C(=O)N[C@@H](CC(N)=O)C(=O)N[C@@H](CCC(=O)O)C(=O)N[C@@H](C)C(=O)N[C@@H](C)C(=O)N[C@@H](CC(C)C)C(=O)N[C@@H](CCCNC(=N)N)C(=O)N[C@@H](CCC(=O)O)C(=O)N[C@@H](CC(C)C)C(N)=O)[C@@H](C)CC)[C@@H](C)CC [SEQ ID NO:5],clearance,[1],> 0.667 mL/min/kg
same,half-life,[1],6 h
same,peptide remaining detectable in solution,[2]; time point of 1 week,less than 80%
Ac-TTWEAWDRAIAEYAARIEALIRAAQEQQEKLEAALREL-NH2 (N-terminus and C-terminus assumed) [SEQ ID NO:7],"biological half-life relative to base sequence, in words",[1],increased biological half-life
same,clearance,[1],< 0.333 mL/min/kg
same,half-life,[1],17 h
Ac-TTWEAWDRAIAEYAARIEALIRALQEQQEKNEAALREL-NH2 (N-terminus and C-terminus assumed) [SEQ ID NO:6],"biological half-life relative to base sequence, in words",[1],increased biological half-life
same,clearance,[1],< 0.333 mL/min/kg
same,half-life,[1],15 h
"Ac-TTWEAWDRAIAEYAARIEALLRAAQEQQEKLEAALREL-NH2 [SEQ ID NO:10, TTWEAWDRAIAEYAARIEALLRAAQEQQEKLEAALREL]",Helicity (%),[3],77%
same,Tm (° C.),[4],75 °C
same,Antiviral Activity (μg/ml) HIV-IIIB IC50,HIV-IIIB,<0.10 µg/mL
same,Antiviral Activity (μg/ml) HIV-Res IC50,HIV-Res,<0.10 µg/mL
same,"biological half-life relative to base sequence, in words",[1],increased biological half-life
same,clearance,[1],< 0.333 mL/min/kg
same,half-life,[1],21 h
Ac-TTWEAWDRAIAEYAARIEALLRAAQEQQEKNEAALREL-NH2 (N-terminus and C-terminus assumed) [SEQ ID NO:8],"biological half-life relative to base sequence, in words",[1],does not exhibit the dramatic increase in half-life
same,clearance,[1],> 0.667 mL/min/kg
same,half-life,[1],7 h
enfuvirtide,"stability of solution, in words",[2],becomes unstable after just several hours
same,Fold Change in IC50,584.000030; starting virus isolate 584.000030,19
same,Ending IC50,"584.000030; starting virus isolate 584.000030, after selection",0.798 µg/mL
same,Starting IC50,"584.000030; starting virus isolate 584.000030, before selection",0.042 µg/mL
same,Fold Change in IC50,584.000060; starting virus isolate 584.000060,7
same,Ending IC50,"584.000060; starting virus isolate 584.000060, after selection",0.068 µg/mL
same,Starting IC50,"584.000060; starting virus isolate 584.000060, before selection",0.01 µg/mL
same,Fold Change in IC50,584.000098; starting virus isolate 584.000098,912
same,Ending IC50,"584.000098; starting virus isolate 584.000098, after selection",45.575 µg/mL
same,Starting IC50,"584.000098; starting virus isolate 584.000098, before selection",0.05 µg/mL
same,Fold Change in IC50,IIIB,27
same,Ending IC50,IIIB; after selection,0.163 µg/mL
same,Starting IC50,IIIB; before selection,0.006 µg/mL
same,Fold Change in IC50,[5],42
same,Ending IC50,[5]; after selection,0.797 µg/mL
same,Starting IC50,[5]; before selection,0.019 µg/mL
